Oligonucleotides are written 5' to 3', each unit as a sugar letter and its base; * is a phosphorothioate linkage, no mark a phosphodiester; rarer units and linkages stand in square brackets, end groups in braces. Plain capitals give the bases only. e = 2'-O-(2-methoxyethyl) (MOE); [5mC] = 5-methylcytosine
Experiments:
Assay type in all cases: cell-based, human
[1] = system: IKBKAP mRNA in GM04899 fibroblasts; assay: Exon 20 inclusion in FD patient skin fibroblast line GM04899 (RT-PCR); settings: GM04899, kinetin treatment for 3 days, concentration not given; relative to IMR90 cells (100%)
Description: To investigate the effect of ISIS 421992 on patient-derived fibroblasts, the patient skin fibroblast line GM04899 (Coriell Cell Repository) was utilized. The cell line was derived from an individual homozygous for the major FD mutation.
GM04899 was cultured in minimal essential medium (Invitrogen) supplemented with non-essential amino acids (Invitrogen) and 20% (v/v) fetal bovine serum. The cells were grown to 40-50% confluence in 10-cm dishes. Cells were transfected with 2 nM, 5 nM, 25 nM, or 125 nM concentrations of ISIS 421992 using 12 μL Lipofectamine 2000 transfection reagent (Invitrogen). Two days later, cDNA synthesized from total RNA extracted from HEK-293 cells was amplified using the forward primer pCDNAF and reverse primer sequence IKAP21R4 to assay the splicing pattern of expressed RNAs by RT-PCR. To calculate exon 20 inclusion levels, the PCR amplicons were labeled with α^32P-dCTP. The PCR products were then separated by native PAGE, followed by phosphorimage analysis. The band intensities were quantified and values were normalized for the G+C content according to the DNA sequence. Multiple lanes for each condition represent independent experiments.
A batch of cells was treated with solvent (NaOH) only of the kinetin solution as a control. RNA from IMR90, a wild-type normal diploid lung fibroblast cell line was used as positive control. The results are expressed as percent inclusion of exon 20 compared to the exon 20 inclusion (100%) of IKBKAP mRNA in IMR90 cells.

[2] = system: IKAP protein; assay: IKAP protein levels in GM04899 fibroblasts (SDS-PAGE, anti-IKAP antibody, band intensity)
Description: Protein samples were obtained by Trizol extraction and separated by SDS-PAGE. The bands were transferred onto a nitrocellulose membrane and probed with an anti-IKAP antibody (abcam #ab56362) (1:1,000 dilution in 5% milk in TBST) for 12 hrs. The membrane was washed 5 times with TBST for 5 min each and then probed with secondary antibody 800 nm LiCor (1:5,000 in 5% milk in TBST) for 1 hr in the dark. The membrane was subsequently washed 5 times with TBST for 5 min each. The bands were then exposed at 800 nm and band intensity was quantified using an Odyssey (LiCor) instrument. The results are presented in Table 4 as percent increase in band intensity compared to the control oligonucleotide-treated bands.

[3] = system: IKBKAP pre-mRNA (mt19-21 minigene); assay: Exon 20 inclusion in HEK-293 cells harboring the mt19-21 IKBKAP minigene (RT-PCR); settings: HEK-293 with mt19-21 minigene; for % inclusion (exon 20): 0.007 nmol oligonucleotide by electroporation, RT-PCR two days later; for effect on exon 20 inclusion/skipping, in words: 0.007 nmol oligonucleotide
Description: Antisense oligonucleotides were designed targeting a human IKBKAP nucleic acid and were tested for their effects on IKBKAP pre-mRNA in vitro. Together, the overlapping antisense oligonucleotides spanned the entire 74-nucleotide region of the IKBKAP exon 20 sequence, as well as the 100-nucleotide intronic regions immediately upstream and downstream of exon 20. The antisense oligonucleotides are presented in Table 1, and were designed as uniform 2′-O-methoxyethyl ribose (MOE) oligonucleotides with phosphate backbones. Each oligonucleotide is 15 nucleosides in length. All cytosine residues throughout the oligonucleotide are 5-methylcytosines. ‘Start Site’ indicates the 5′-most nucleoside to which the oligonucleotide is targeted in the human gene sequence. “Stop site” indicates the 3′-most nucleoside to which the oligonucleotide is targeted in the human gene sequence. Each oligonucleotide listed in Table 1 is targeted to the human IKBKAP genomic sequence (the complement of GENBANK Accession No NT_008470.16 truncated from nucleotides 13290828 to Ser. No. 13/358,424, designated herein as SEQ ID NO: 1). ISIS 414161 has one mismatch with SEQ ID NO: 1.
Cultured HEK-293 cells harboring the mt19-21 minigene vector construct at a density of 7×10^5 cells per well were transfected using electroporation (Gene Pulsar II apparatus, Bio-Rad) with 0.007 nmol antisense oligonucleotide, as previously described (Hua, Y., et al., 2007. PLoS Biol 5:e73). […] These oligonucleotides served as controls for non-specific effects of uniform MOE oligonucleotides with phosphate backbones. Cells harboring the wt19-21 minigene and the mt19-21 minigene alone were also cultured and were used as controls for exon 20 inclusion levels. Two days later, cDNA synthesized from total RNA extracted from HEK-293 cells was amplified using the forward primer pCDNAF and reverse primer sequence IKAP21R4 to assay the splicing pattern of expressed RNAs by RT-PCR. To calculate exon 20 inclusion levels, the PCR amplicons were labeled with α^32P-dCTP. The PCR products were then separated by native PAGE, followed by phosphorimage analysis on a FUJIFILM FLA-5100 instrument (Fuji Medical Systems USA Inc.). The band intensities were quantified using Multi Gauge software Version 2.3 (FUJIFILM), and values were normalized for the G+C content according to the DNA sequence.
Treatment with antisense oligonucleotides targeting the 3′ and 5′ splice sites caused increased skipping of exon 20.
Additional oligonucleotides were designed targeting the first 30-nucleotide stretch of ISS-40. These oligonucleotides were designed by choosing sequences shifted in one nucleotide increments upstream and downstream (i.e., a “microwalk”) of ISS-40, starting from the +6 position in exon 20. The antisense oligonucleotides are presented in Table 2 and FIG. 4D, and were designed as uniform 2′-O-methoxyethyl ribose (MOE) oligonucleotides with phosphate backbones. Each oligonucleotide is 20 nucleosides in length. All cytosine residues throughout the oligonucleotide are 5-methylcytosines. ‘Start Site’ indicates the 5′-most nucleoside to which the oligonucleotide is targeted in the human gene sequence. “Stop site” indicates the 3′-most nucleoside to which the oligonucleotide is targeted in the human gene sequence. Each oligonucleotide listed in Table 2 is targeted to intron 20 of the human IKBKAP genomic sequence (the complement of GENBANK Accession No NT_008470.16 truncated from nucleotides 13290828 to Ser. No. 13/358,424, designated herein as SEQ ID NO: 1). These oligonucleotides were tested in vitro.
Cultured HEK-293 cells harboring the mt19-21 minigene vector construct at a density of 7×10^5 cells per well were transfected using electroporation (Gene Pulsar II apparatus, Bio-Rad) with 0.007 nmol antisense oligonucleotide, as previously described (Hua, Y., et al., 2007. PLoS Biol 5:e73). […]

c1coc(CNc2ncnc3nc[nH]c23)c1 [kinetin, 6-furfurylaminopurine, reference compound]
% inclusion of exon 20 [1]: 98% | IKAP protein levels, in words ([2]; GM04899, kinetin, under these conditions): did not increase IKAP protein levels | Percent increase in protein band intensity (IKAP) ([2]; GM04899, kinetin-treated, compared to control oligonucleotide-treated bands): 11%

ISIS 414130: uniform 2′-MOE 15-mer, phosphate backbone; TTCACAGAGAATTAC, SEQ ID NO 9, intron 19 (eTeTe[5mC]eAe[5mC]eAeGeAeGeAeAeTeTeAe[5mC]; splice-switching)
% inclusion (exon 20) ([3]; Table 1): 25%

ISIS 414140: uniform 2′-MOE 15-mer, phosphate backbone; ATTAAGTAGAAAACA, SEQ ID NO 19, intron 19 (eAeTeTeAeAeGeTeAeGeAeAeAeAe[5mC]eA; splice-switching)
% inclusion (exon 20) ([3]; Table 1): 13%

ISIS 414147: uniform 2′-MOE 15-mer, phosphate backbone; GTTTCCCCTTGGCAT, SEQ ID NO 26, exon 20 (eGeTeTeTe[5mC]e[5mC]e[5mC]e[5mC]eTeTeGeGe[5mC]eAeT; splice-switching)
% inclusion (exon 20) ([3]; Table 1): 3%

ISIS 414174: uniform 2′-MOE 15-mer, phosphate backbone; AGTTCTCGAAATTGT, SEQ ID NO 53, intron 20 (eAeGeTeTe[5mC]eTe[5mC]eGeAeAeAeTeTeGeT; splice-switching)
% inclusion (exon 20) ([3]; Table 1): 29%

ISIS 414168: uniform 2′-MOE 15-mer, phosphate backbone; GTCTTCACACATAAA, SEQ ID NO 47, intron 20 (eGeTe[5mC]eTeTe[5mC]eAe[5mC]eAe[5mC]eAeTeAeAeA; splice-switching)
effect on exon 20 inclusion/skipping, in words [3]: significantly decreased the levels of the included RNA isoform | % inclusion (exon 20) ([3]; Table 1): 17%

ISIS 414144: uniform 2′-MOE 15-mer, phosphate backbone; TTAAAGCAGTAACAT, SEQ ID NO 23, intron 19 (eTeTeAeAeAeGe[5mC]eAeGeTeAeAe[5mC]eAeT; splice-switching)
% inclusion (exon 20) ([3]; Table 1): 7%

ISIS 414166: uniform 2′-MOE 15-mer, phosphate backbone; ATAAATCACAAGCTA, SEQ ID NO 45, intron 20 (eAeTeAeAeAeTe[5mC]eAe[5mC]eAeAeGe[5mC]eTeA; splice-switching)
effect on exon 20 inclusion/skipping, in words [3]: markedly increased inclusion of exon 20 | % inclusion (exon 20) ([3]; Table 1): 40% | % inclusion (exon 20) ([3]; Table 2 (microwalk experiment)): 38%

— patent US11066668B2, “Compositions and methods for modulation of IKBKAP splicing” (Ionis Pharmaceuticals, Inc., priority 2012, dated 2021)
